Assay results taken from patent publication US9884067B2, “Androgen receptor down-regulating agents and uses thereof” (UNIVERSITY OF MARYLAND EASTERN SHORE, priority 2013, dated 2018).
Values joined by “and” are separate entries in the source; they are usually repeats but may differ in a detail not shown here. Equal entries are not always repeated. Where two headings read alike, the source gives them in different places. Values belong to the molecule of their own block, whether it stands above or below them.

Key:
full-length AR = experiment: Down-regulation of full-length AR, western blot in CWR22rv1 cells; type: cell-based, human; conditions: CWR22rv1 prostate cancer cell line
Description: (§1) Due to the potential implication of AR splice variants lacking the ligand-binding domain (truncated AR) in driving the progression of CRPC, the effects of the compounds on the down-regulation of AR-3 (also called AR-V7) were determined.
(§2) For the Western blot analyses, LNCaP or CWR22v1 prostate cancer cells were cultured. The cells were then treated with the indicated compounds and whole cell lysates were prepared using RIPA lysis buffer (Sigma Aldrich) and protease and phosphatase inhibitors (Sigma Aldrich). All of the antibodies were ordered from cell signaling technology. Protein content was determined using the Bradford Assay (Bio-Rad, Hercules, Calif., USA). Protein was subjected to SDS-PAGE and transferred onto nitrocellulosemembrane. Membranes were then incubated with secondary antibody (cell signaling technology) at room temperature for 1 hour. Bands were visualized by chemiluminescence (Millipore). Protein expression was normalized to β-actin and densitometry was carried out using Image J or ImageQuant 5.0 (Molecular Dynamics, Sunnyvale, Calif., USA).

human CYP17A1 (CYP171dH) = molecular target: T1, human CYP17A1 (CYP171dH) (Homo sapiens, UniProt P05093); experiment: CYP17 inhibition studies; type: biochemical
T1 sequence (P05093 with tags, fused parts or gaps limits assumed): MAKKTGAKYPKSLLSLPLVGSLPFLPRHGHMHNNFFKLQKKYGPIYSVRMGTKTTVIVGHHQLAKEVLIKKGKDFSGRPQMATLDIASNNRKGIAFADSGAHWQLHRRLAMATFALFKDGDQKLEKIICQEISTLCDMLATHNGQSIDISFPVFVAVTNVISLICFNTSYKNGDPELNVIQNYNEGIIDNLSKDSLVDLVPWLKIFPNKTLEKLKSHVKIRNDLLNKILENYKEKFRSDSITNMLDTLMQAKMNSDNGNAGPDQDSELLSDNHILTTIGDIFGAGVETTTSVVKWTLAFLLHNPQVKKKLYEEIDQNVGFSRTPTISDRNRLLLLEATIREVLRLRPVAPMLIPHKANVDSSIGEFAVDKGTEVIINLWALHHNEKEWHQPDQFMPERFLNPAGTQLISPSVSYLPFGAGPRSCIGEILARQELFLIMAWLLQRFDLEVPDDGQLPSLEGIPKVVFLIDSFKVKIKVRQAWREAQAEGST
Description: Some compounds were evaluated for their ability to inhibit CYP17 enzyme. A truncated version of human CYP17A1 (CYP171dH) was expressed in E. coli and then purified to homogeneity.

AR-3 (also called AR-V7) = molecular target: T2, AR-3 (also called AR-V7) (Homo sapiens, UniProt P10275); experiment: Down-regulation of truncated AR splice variant, western blot in CWR22rv1 cells; type: cell-based; conditions: CWR22rv1 prostate cancer cell line
T2 construct: endogenous in cells; host or cells: CWR22Rv1
T2 sequence (P10275 1-644 isoform P10275-3): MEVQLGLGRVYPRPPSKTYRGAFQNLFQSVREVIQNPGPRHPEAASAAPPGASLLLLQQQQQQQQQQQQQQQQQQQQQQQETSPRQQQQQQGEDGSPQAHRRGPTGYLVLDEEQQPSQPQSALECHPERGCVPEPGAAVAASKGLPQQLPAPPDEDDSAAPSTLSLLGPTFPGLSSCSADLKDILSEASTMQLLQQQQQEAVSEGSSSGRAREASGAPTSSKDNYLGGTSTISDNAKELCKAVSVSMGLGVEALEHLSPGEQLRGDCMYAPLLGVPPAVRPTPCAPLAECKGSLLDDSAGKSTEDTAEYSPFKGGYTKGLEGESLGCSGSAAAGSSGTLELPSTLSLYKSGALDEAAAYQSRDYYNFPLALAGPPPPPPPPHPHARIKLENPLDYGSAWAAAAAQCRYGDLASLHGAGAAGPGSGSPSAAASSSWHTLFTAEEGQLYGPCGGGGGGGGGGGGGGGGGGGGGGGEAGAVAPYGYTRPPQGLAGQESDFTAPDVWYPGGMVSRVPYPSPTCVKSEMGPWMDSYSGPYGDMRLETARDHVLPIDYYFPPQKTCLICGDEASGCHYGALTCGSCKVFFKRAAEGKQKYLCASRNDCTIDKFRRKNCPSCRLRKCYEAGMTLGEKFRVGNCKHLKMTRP
Description: as §1, §2

LNCaP cells = experiment: MTT colorimetric anti-proliferative assay; type: cell-based, human
Description: The cells were treated for 7 days with renewal of test compound and media on day 4. On the 7th day, medium was renewed and MTT (3-(4,5-dimethylthiazol-2-yl)-2,5-diphenyl-2H-tetrazolium bromide) (Sigma, St Louis, Mo., USA) solution (0.5 mg MTT per ml of media) was added to the medium such that the ratio of MTT: medium was 1:10. The cells were incubated with MTT for 2 hours. The medium was then aspirated and DMSO was added to solubilize the violet MTT-formazan product.

[1] = Solubility in ethanol or DMSO; type: physicochemical
AR = molecular target: T3, AR (Homo sapiens, UniProt P10275, T878A); experiment: AR down-regulation, western blot analysis in LNCaP cells; type: cell-based; conditions: 24 h, western blot
T3 construct: host or cells: LNCaP
T3 sequence (P10275 1-920 T878A): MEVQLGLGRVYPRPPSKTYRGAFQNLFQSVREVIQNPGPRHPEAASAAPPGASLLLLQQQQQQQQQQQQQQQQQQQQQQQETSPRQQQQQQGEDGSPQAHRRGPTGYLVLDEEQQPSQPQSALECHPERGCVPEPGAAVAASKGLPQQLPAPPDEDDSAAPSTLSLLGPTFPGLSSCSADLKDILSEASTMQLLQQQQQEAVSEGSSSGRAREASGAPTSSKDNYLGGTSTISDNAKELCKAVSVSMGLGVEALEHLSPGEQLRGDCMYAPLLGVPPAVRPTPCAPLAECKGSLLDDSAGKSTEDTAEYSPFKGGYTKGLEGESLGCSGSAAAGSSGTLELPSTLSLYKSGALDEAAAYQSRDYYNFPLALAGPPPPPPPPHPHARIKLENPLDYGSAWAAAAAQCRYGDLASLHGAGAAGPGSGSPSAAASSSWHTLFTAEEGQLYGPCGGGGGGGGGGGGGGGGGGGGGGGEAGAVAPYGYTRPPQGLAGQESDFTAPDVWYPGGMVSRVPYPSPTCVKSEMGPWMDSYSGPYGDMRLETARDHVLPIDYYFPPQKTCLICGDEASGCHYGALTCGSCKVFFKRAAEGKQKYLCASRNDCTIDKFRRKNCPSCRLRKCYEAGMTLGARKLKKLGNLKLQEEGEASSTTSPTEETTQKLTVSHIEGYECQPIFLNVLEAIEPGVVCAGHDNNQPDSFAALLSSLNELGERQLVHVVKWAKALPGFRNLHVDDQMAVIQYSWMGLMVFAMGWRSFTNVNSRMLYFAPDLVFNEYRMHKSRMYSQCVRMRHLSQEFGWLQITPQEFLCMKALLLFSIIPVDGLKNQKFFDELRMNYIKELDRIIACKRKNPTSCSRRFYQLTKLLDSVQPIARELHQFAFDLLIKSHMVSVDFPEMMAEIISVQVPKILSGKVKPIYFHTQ
Description: For the Western blot analyses, LNCaP or CWR22v1 prostate cancer cells were cultured. The cells were then treated with the indicated compounds and whole cell lysates were prepared using RIPA lysis buffer (Sigma Aldrich) and protease and phosphatase inhibitors (Sigma Aldrich). All of the antibodies were ordered from cell signaling technology. Protein content was determined using the Bradford Assay (Bio-Rad, Hercules, Calif., USA). Protein was subjected to SDS-PAGE and transferred onto nitrocellulosemembrane. Membranes were then incubated with secondary antibody (cell signaling technology) at room temperature for 1 hour. Bands were visualized by chemiluminescence (Millipore). Protein expression was normalized to β-actin and densitometry was carried out using Image J or ImageQuant 5.0 (Molecular Dynamics, Sunnyvale, Calif., USA). CWR22Rv1 cells were used for endogenous levels of splice variant AR-3. Protein levels were analyzed with respective antibodies; full length AR and β-actin antibodies were purchased from cell signaling, antibody specific for splice variant AR-3 was obtained from Dr. Yun Qiu, University of Maryland, School of Medicine, Baltimore.

AR in LNCaP cells = molecular target: T4, AR in LNCaP cells (Homo sapiens, UniProt P10275, T878A); experiment: Whole cell competitive binding assay with [3H]R1881; conditions: 30 µM
T4 sequence (P10275 1-920 T878A): T3 sequence (P10275 1-920 T878A)
Description: The androgen receptor competitive binding assays were performed with the synthetic androgen methyltrienolone [^3H]R1881. […] To determine the kinetics of [^3H]R1881 binding to the LNCaP AR cells were plated (2-3×10^5 cells/well) in 24 well multiwell dishes in steroid-free medium and allowed to attach. […] Following a 2 hour incubation period at 37° C., cells were washed twice with ice-cold DPBS and solubilized in DPBS containing 0.5% SDS and 20% glycerol. Extracts were removed and cell associated radioactivity counted in a scintillation counter. The data was analyzed, including Kd and Bmax determination, by nonlinear regression using Graphpad Prism software (GraphPad Software, Inc, San Diego, Calif.). When the concentration of [^3H]R1881 required to almost saturate AR in both cell lines was established (5.0 nM), the ability of the test compounds (1 nM-10 μM) to displace [^3H]R1881 (5.0 nM) from the receptors was determined as described above. The IC50 of each compound was determined by nonlinear regression with Graphpad Prism software (GraphPad Software, Inc, San Diego, Calif.).

[2] = each in duplicate, from dose-response curves
[3] = Homo sapiens, LNCaP, 168 h, LNCaP, MTT, 7 days, Table 4, read-out: GI50 of C-3 modified compounds
[4] = Homo sapiens, LNCaP, 168 h, LNCaP, MTT, 7 days, Table 2, read-out: GI50 of C-17 modified compounds

SMILES: C[C@]12CCC(=NO)C=C1CC[C@@H]1[C@@H]2CC[C@]2(C)C(n3cnc4ccccc43)=CC[C@@H]12 (mixture of isomers) [Compound 36, 3-((EZ)-Hydroximino)-17-(1H-Benzimidazol-1-yl)-androsta-4,16-diene]
down-regulation of full-length AR (full-length AR): significant down-regulation
IC50 (human CYP17A1 (CYP171dH); [2]): 93.7 to 258 µM and 258 µM
down-regulation of truncated AR (AR-3) (AR-3 (also called AR-V7)): significant down-regulation
GI50 (LNCaP cells; [3]): 1.91 µM

SMILES: C[C@]12CCC(=NOc3ccccc3)C=C1CC[C@@H]1[C@@H]2CC[C@]2(C)C(n3cnc4ccccc43)=CC[C@@H]12 (mixture of isomers) [Compound 37, 3-((EZ)—O-Phenyloxime)-17-(1H-Benzimidazol-1-yl)-androsta-4,16-diene]
solubility in ethanol or DMSO [1]: limited solubility in ethanol or DMSO

SMILES: C[C@]12CC[C@H](O)CC1=CC[C@@H]1[C@@H]2CC[C@]2(C)C(c3cccnc3)=CC[C@@H]12 [Abiraterone alcohol (3b), abiraterone alcohol, reference compound]
IC50 (human CYP17A1 (CYP171dH); [2]): 0.206 µM
GI50 (LNCaP cells; LNCaP, MTT, 7 days, Table 2, read-out: GI50 of C-17 modified compounds): 1.97 µM

IC50 (human CYP17A1 (CYP171dH); [2]): 0.752 µM
GI50 (LNCaP cells; [4]): 3.35 µM
SMILES: C[C@]12CC[C@H](O)CC1=CC[C@@H]1[C@@H]2CC[C@]2(C)C(n3cnc4ccccc43)=CC[C@@H]12 [Compound 5, 3β-Hydroxy-17-(1H-benzimidazol-1-yl)-androsta-5,16-diene, reference compound]
down-regulation of full-length AR (full-length AR): significant down-regulation

SMILES: C[C@]12CC[C@H](O)CC1=CC[C@@H]1[C@@H]2CC[C@]2(C)C(n3ccc4ccccc43)=CC[C@@H]12 [Compound 16, 3β-Hydroxy-17-(1H-indol-1-yl)-androsta-5,16-diene]
IC50 (human CYP17A1 (CYP171dH); [2]): 93.7 to 258 µM and 130 µM
GI50 (LNCaP cells; [4]): > 100 µM
AR down-regulation (ARD) activity, in words (AR): up-regulation of AR
melting point: 142 to 145 °C

SMILES: COc1ccc(NCC2=C(n3cnc4ccccc43)[C@@]3(C)CC[C@H]4[C@@H](CC=C5C[C@@H](O)CC[C@@]54C)[C@@H]3C2)cc1OC [Compound 31, 3β-Hydroxy-17-(1H-benzimidazol-1-yl)-16-(((3,4-dimethoxyphenyl)amino)methyl)-androsta-5,16-diene]
down-regulation of full-length AR (full-length AR): significant down-regulation
down-regulation of truncated AR (AR-3) (AR-3 (also called AR-V7)): significant down-regulation
GI50 (LNCaP cells; Homo sapiens, LNCaP, 168 h, LNCaP cells, MTT, 7 days, Table 3, read-out: GI50 of C-16 modified compounds): > 100 µM
AR down-regulation (ARD) activity, in words (AR): significant loss of ARD

SMILES: C[C@]12CC[C@H](OC(=O)c3ccccn3)CC1=CC[C@@H]1[C@@H]2CC[C@]2(C)C(n3cnc4ccccc43)=CC[C@@H]12 [Compound 41, 3β-(Pyridine-2-carboxylate)-17-(1H-benzimidazol-1-yl)-androsta-5,16-diene]
solubility in ethanol or DMSO [1]: limited solubilities in ethanol or DMSO

SMILES: C[C@]12CC[C@H](OC(=O)c3cccnc3)CC1=CC[C@@H]1[C@@H]2CC[C@]2(C)C(n3cnc4ccccc43)=CC[C@@H]12 [Compound 42, 3β-(Pyridine-3-carboxylate)-17-(1H-benzimidazol-1-yl)-androsta-5,16-diene]
solubility in ethanol or DMSO [1]: limited solubilities in ethanol or DMSO

SMILES: C[C@]12CC[C@H](OC(=O)c3ccncc3)CC1=CC[C@@H]1[C@@H]2CC[C@]2(C)C(n3cnc4ccccc43)=CC[C@@H]12 [Compound 43, 3β-(Pyridine-4-carboxylate)-17-(1H-benzimidazol-1-yl)-androsta-5,16-diene]
inhibition of [3H]R1881 binding / displacement (AR in LNCaP cells): ~53%
GI50 (LNCaP cells; read-out: GI50 of C-3 modified compounds): 2.57 µM

SMILES: Cc1nccn1C(=O)O[C@H]1CC[C@@]2(C)C(=CC[C@@H]3[C@@H]2CC[C@]2(C)C(n4cnc5ccccc54)=CC[C@@H]32)C1 [Compound 48, 3β-(2-Methyl-1H-imidazole-1-carboxylate)-17-(1H-benzimidazol-1-yl)-androsta-5,16-diene]
IC50 (human CYP17A1 (CYP171dH); [2]): 93.7 to 258 µM and 93.7 µM
GI50 (LNCaP cells; [3]): 5.34 µM
fold decrease in anti-proliferative activity (LNCaP cells; relative to 47): 6 fold
melting point: 186 to 187 °C

SMILES: C[C@]12CC[C@H](O)CC1=CC[C@@H]1[C@@H]2CC[C@]2(C)C(n3ccnc3)=CC[C@@H]12 [VN/85-1, 3β-hydroxy-17-(1H-imidazole-1-yl)androsta-5,16-diene, reference compound]
IC50 (human CYP17A1 (CYP171dH)): 0.125 µM
